Converted amounts (≈) assume the structure as drawn. Records with an inconclusive call do not appear. The source made the active and inactive calls. No rule for the calls is given here.
Tested on: M. tuberculosis H37Rv growth inhibition
Assay: Mycobacterium tuberculosis H37Rv growth inhibition, cell based, confirmatory dose response (AID 1949);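 also: bacteria grown 7 days with compound before Alamar blue readout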

SMILES | IC50
CCOC(=O)c1c(NC(=S)NC2CCN(Cc3ccccc3)CC2)sc(C)c1-c1ccccc1 | 1.38 µg/mL (≈ 2.8 µM)
Cc1nc(Nc2nc3c(c(=O)[nH]2)CCCC3)nc2c(C)cccc12 | 28.1 µg/mL (≈ 87.4 µM)
Cc1occc1C(=O)Nc1sc(Cc2ccccc2)cc1C(N)=O | > 50 µg/mL (inactive)
Oc1ccc(Br)c2cccnc12 | < 0.1 µg/mL
CCOc1ccc(S(=O)(=O)Nc2ccc(C(F)(F)F)cc2)cc1 | 6.25 µg/mL (≈ 18.1 µM)
COC(=O)c1ccc(NC(=O)CSc2ccc(F)cc2)cc1 | 4.02 µg/mL (≈ 12.6 µM)
CN(C)c1ccc(Nc2nc(-c3ccccn3)cs2)cc1 | 0.74 µg/mL (≈ 2.5 µM)
COC(=O)COc1ccc(NC(=O)CSc2ccc(Cl)cc2)cc1 | 0.77 µg/mL (≈ 2.1 µM)
Cc1ccc(OCC(O)CN2CCc3ccccc3C2)c(C(C)(C)C)c1 (stereo not given) | 5.9 µg/mL (≈ 16.7 µM)
CCOC(=O)c1ccc(COC(=O)c2cccc([N+](=O)[O-])c2)cc1 | 1.11 µg/mL (≈ 3.37 µM)
CC1CCc2nc(NC(=S)NCc3ccco3)sc2C1 (stereo not given) | 3.09 µg/mL (≈ 10.1 µM)
O=C(N=Nc1c(O)[nH]c2ccccc12)c1ccc(Cl)cc1 | 46.7 µg/mL (≈ 156 µM)
CC(C)OC(=O)COc1ccc(-c2ccccc2)cc1 | > 50 µg/mL (inactive)
FC(F)(F)c1cccc(-n2cc(-c3ccccc3)c3c(NCc4cccnc4)ncnc32)c1 | 1.51 µg/mL (≈ 3.39 µM)
Oc1ccccc1-c1n[nH]c(/C=C/c2ccccc2Cl)n1 | 6.45 µg/mL (≈ 21.7 µM)
C=CCn1c(NCc2cccc3ccccc23)nc2ccccc21 | 3.16 µg/mL (≈ 10.1 µM)
COCCCN1C(=O)c2cccc3c([N+](=O)[O-])ccc(c23)C1=O | 15.3 µg/mL (≈ 48.7 µM)
CCOC(=O)c1ccc(NC(=O)CC2C(=O)N(Cc3ccccc3)C(=S)N2Cc2cccnc2)cc1 (stereo not given) | 6.04 µg/mL (≈ 12 µM)
CC1=CC(C)(C)N2C(=O)C(=O)c3cc(OC(=O)c4ccccc4C)cc1c32 | 8.23 µg/mL (≈ 22.8 µM)
COc1ccc(-c2nnc(SCC(=O)NCCc3ccccc3)o2)cc1 | < 0.1 µg/mL

SMILES | IC50
OC(COc1ccc2ccccc2c1)CN1CCCN(CC(O)COc2ccc3ccccc3c2)CC1 (stereo not given) | 0.73 µg/mL (≈ 1.46 µM)
CCC(=O)NC(=S)Nc1ccc(NC(=O)c2cc(I)ccc2Cl)cc1 | 0.43 µg/mL (≈ 0.882 µM)
O=C(Nc1nc2c(Cl)cccc2s1)c1ccc([N+](=O)[O-])o1 | 1.58 µg/mL (≈ 4.88 µM)
Cc1ccc(-c2ccc(OCC(=O)OCc3ccccc3)cc2)cc1 | 0.23 µg/mL (≈ 0.692 µM)
c1ccc(COc2ccc(OCCn3ccnc3)cc2)cc1 | 10.4 µg/mL (≈ 35.2 µM)
O=C(NCCc1ccc(Cl)cc1)C12CC3CC(CC(C3)C1)C2 | 13.7 µg/mL (≈ 43 µM)
O=C(CSc1ccc(F)cc1)Nc1ccc2c(c1)OCCO2 | 7.01 µg/mL (≈ 22 µM)
O=C1NC(=O)N(c2ccc(Cl)cc2)C(=O)/C1=C\c1ccc([N+](=O)[O-])s1 | 5.58 µg/mL (≈ 14.8 µM)
COC(=O)c1ccc(NC(=O)CSc2nnc(Cc3ccc(OC)cc3)o2)cc1 | 11.1 µg/mL (≈ 26.8 µM)
CCn1cc(C(=O)O)c(=O)c2cc(F)c(N3CCN(C(=O)Nc4ccccc4)CC3)cc21 | > 50 µg/mL (inactive)
COC(=O)c1ccc(OC(=O)c2c(F)c(F)c(F)c(F)c2F)cc1 | 9.14 µg/mL (≈ 26.4 µM)
COC(=O)COc1ccc2cc(-c3ccc(OC)c(OC)c3)c(=O)oc2c1 | 1.03 µg/mL (≈ 2.78 µM)
Fc1ccccc1-c1nc(-c2cnc3ccccc3c2)c(-c2cccs2)[nH]1 | 5.05 µg/mL (≈ 13.6 µM)
CC(=O)Oc1ccccc1C(=O)OCc1ccc2ccccc2c1 | 11.7 µg/mL (≈ 36.5 µM)
CCCCc1ccc2nc(NC(=O)c3cccs3)sc2c1 | 6.52 µg/mL (≈ 20.6 µM)
Cc1ccc(-c2csc(-c3ccc(O)cc3)n2)cc1 | 2.69 µg/mL (≈ 10.1 µM)
COc1cccc(C(=O)OCc2cccc(C(=O)Oc3ccccc3)c2)c1 | 9.15 µg/mL (≈ 25.2 µM)
CCN(CC)c1ccc(NC(=S)NCC(C)C)cc1 | 5.43 µg/mL (≈ 19.4 µM)
Clc1cc(Cl)c2c(c1)NC(c1cccnc1)C1CC=CC21 (stereo not given) | 22.1 µg/mL (≈ 69.6 µM)
O=C(Nc1cccc(C(F)(F)F)c1)Nc1cc(F)c(F)cc1Cl | 19.5 µg/mL (≈ 55.5 µM)

SMILES | IC50
CCCOc1ccccc1NC(=O)Nc1ccc(Cl)c(Cl)c1 | 1.71 µg/mL (≈ 5.04 µM)
FC(F)(F)c1cccc(NC(=S)Nc2cccc(Cl)c2)c1 | 13.5 µg/mL (≈ 40.9 µM)
Cc1cccc2sc(NC(=O)c3ccc([N+](=O)[O-])cc3Cl)nc12 | 19.4 µg/mL (≈ 55.8 µM)
C/C(=N/N=C1\NC(=O)C(Cc2ccc(Cl)cc2)S1)c1ccc(F)cc1 (stereo not given) | 19 µg/mL (≈ 50.6 µM)
CCCc1cc(C(=O)OC)c(NC(=O)c2cc3ccccc3oc2=O)s1 | 39.4 µg/mL (≈ 106 µM)
COc1ccc(-c2c(C)[nH]n3c(=O)c(Cc4ccccc4)c(C)nc23)cc1 | 1.28 µg/mL (≈ 3.56 µM)
CC(C)CCNC(=O)C(=O)Nc1ccccc1Cl | 0.84 µg/mL (≈ 3.13 µM)
O=C(NCCCN1CCN(c2ccc(Cl)cc2)CC1)Nc1ccc(F)cc1 | 9.16 µg/mL (≈ 23.4 µM)
CCCn1c2ccccc2c2nc3ccccc3nc21 | > 50 µg/mL (inactive)
C=CCN(CC=C)C(=S)NC(=O)c1ccc(F)cc1 | 0.81 µg/mL (≈ 2.91 µM)
CCCCn1c(NC(=S)Nc2ccccc2)nc2ccccc21 | 4.83 µg/mL (≈ 14.9 µM)
COc1ccc(NC(=O)C(Cc2c[nH]c3ccccc23)NC(C)=O)cc1 (stereo not given) | 3.08 µg/mL (≈ 8.76 µM)
CC(C)(C)c1cnc(NC(=O)c2ccccc2O)s1 | 1.06 µg/mL (≈ 3.84 µM)
COc1cccc(NC(=O)CSc2nnc(-c3ccc(Br)cc3)o2)c1 | 3.12 µg/mL (≈ 7.42 µM)
Cc1cccc(NC(=S)NCCN2CCN(c3ccc(F)c(Cl)c3)CC2)c1C | 2.79 µg/mL (≈ 6.63 µM)
CCC(C(=O)Nc1ccc(CC(=O)OC)cc1)c1ccccc1 (stereo not given) | 0.69 µg/mL (≈ 2.22 µM)
Cc1cc(OCCCn2ccnc2)ccc1Cl | 1.94 µg/mL (≈ 7.74 µM)
S=C(NCCc1ccccc1)Nc1ccc(Nc2ccccc2)cc1 | 3.85 µg/mL (≈ 11.1 µM)
O=C(COc1ccc2ccccc2c1)c1ccc(Cl)cc1 | 16.5 µg/mL (≈ 55.4 µM)
COc1ccc(NC(=S)Nc2cccc(C(F)(F)F)c2)c([N+](=O)[O-])c1 | 23.3 µg/mL (≈ 62.9 µM)
